Measured values as given in US11241442B2, “Methods of use for TRP channel antagonist-based combination cancer therapies” (President and Fellows of Harvard College, priority 2017, dated 2022).

Tested on: HCC70
Experiment: Live cell number under carboplatin in HCC70 cells
Format: cell-based
Conditions: 10 μM AP-18; carboplatin 72 h; HCC70, very low TRPA1
Protocol: For the measurements of live cell number and cell death under treatment with H2O2, diamide, or chemotherapies, cells were cultured on 96-well plates in the presence or absence of these drugs for indicated times and stained with 5 μM bisBenzimide H 33342 trihydrochloride (Hoechst; Sigma) and 5 μM propidium iodide (PI; Sigma) for 1 h at 37° C. Hoechst- and/or PI-positive cells were counted using a laser scanning cytometer, Acumen Cellista (TTPLabTech). Apoptotic cells induced by H2O2 treatment were measured by staining with Annexin V-Alexa Fluor® 488 conjugate (Life Technologies) and PI in Ca^2+-containing solution (10 mM HEPES pH 7.4, 140 mM NaCl; 2.5 mM CaCl2), followed by flow cytometric measurement of fluorescence using a FACSCalibur. Flow cytometry plots are representative of three independent experiments. […] Viable cells were counted using the Countless Automated Cell Counters (Thermo Fisher Scientific). […] Hoechst- and/or PI-positive areas were measured using Acumen Cellista. Apoptotic cells induced by detachment were measured by staining with 5 μM Hoechst and 5 μM of CellEvent™ Caspase-3/7 Green Detection Reagent (Thermo Fisher Scientific) for 1 h at 37° C. without enzymatic dissociation of cell clumps. Hoechst- and/or CellEvent™ Caspase-3/7 Green Detection Reagent-positive areas were measured using Acumen Cellista. […]

With AP-18 the sensitization to carboplatin was “minimal to no effect”.
